Literature values in patent US20080188497A1, “Dipyridamole, Acetylsalicylic Acid, and Angiotensin II Antagonist Pharmaceutical Compositions” (Boehringer Ingelheim International GmbH, priority 2003, published 2008).

Settings: ESPS-2 clinical study; compared with low-dose aspirin / aspirin alone

SMILES: OCCN(CCO)c1nc(N2CCCCC2)c2nc(N(CCO)CCO)nc(N3CCCCC3)c2n1 [dipyridamole, 2,6-bis(diethanolamino)-4,8-dipiperidinopyrimido[5,4-d]pyrimidine]
- reduction of stroke risk: as effective as low-dose aspirin
